Data as given in patent US10517919B2, “Selective Nox-1 inhibitor peptides and uses thereof” (UNIVERSITE DE BORDEAUX, priority 2013, dated 2019).
Each block holds one substance with its values, some of them ahead of it.

Columns and labels:
[1] = test system: primary human keratinocytes; assay: ROS level with CM-H2DCF-DA probes in keratinocytes; assay type: cell-based; conditions: 10 or 50 μM, 24 h
Method: (§1) FIGS. 2A and 2B: show the relative ROS level as measured in primary human keratinocytes and HT29 (human colon adenocarcinoma cell line) treated with 10 or 50 μM of peptide inhibitor for 24 h using the CM-H2DCF-DA probes. Cells were treated with 10 μM of the peptides A (SEQ ID NO: 41), B (SEQ ID NO: 42), and C (SEQ ID NO: 43), and the ROS level was measured 24 h post-treatment. ROS level was normalized to non-treated cells (NTC) (*P<0.05).
(§2) ROS level in primary human keratinocytes treated with 10 or 50 μM of peptides A, B, and C for 24 h were assayed using the CM-H2DCF-DA probes (FIG. 2A).

[2] = test system: human colon adenocarcinoma HT29 cell line; assay: ROS level in HT29 cells, in which Nox1 is the only active Nox; assay type: cell-based; conditions: 24 h post-treatment
Method: as §1, §2

NADPH oxidase [3] = assay: NADPH oxidase activity in keratinocytes treated with peptide A variants; assay type: cell-based; conditions: 10 μM, 24 h post-treatment, normalized to scramble treated cells
Method: Keratinocytes were treated with 10 μM of the indicated peptides: scramble control peptide P1 (SEQ ID NO: 57), peptide A with tat sequence (SEQ ID NO: 41) or without the tat sequence (SEQ ID NO:20); shorter peptides P7 (SEQ ID NO: 2) and P8 (SEQ ID NO: 56) (FIG. 8A). The NADPH oxidase activity was measured 24 h post-treatment (RLU/μg of proteins) and was normalized to the scramble treated cells (FIG. 8B).

[4] = test system: UVB-induced squamous cell carcinomas (SCC); assay: UVB-induced squamous cell carcinoma induction (photocarcinogenesis); assay type: in vivo, SKH-1 hairless mice; conditions: for tumors with a volume less than 5 mm^3: 3 mg/kg topical, week 29
Method: FIGS. 6A, 6B and 6C: show the photoprotective effects of peptide A on UVB-induced squamous cell carcinomas (SCC) induction using SKH-1 hairless mice. Mice were treated topically with 3 mg/kg of peptide A or control peptide, and irradiated with UVB 10 min later three times per week. The number (6A) and the size (6B) of tumors were assessed once a week during 29 weeks (6C). The tumor volume distribution was evaluated at week 29. Clearly there is a considerable reduction in numbers and size of UVB-induced tumors in SKH-1 mice administrated topically with peptide A.
To examine the photoprotective effects of peptide A, the effect of peptide A administration on UVB-induced squamous cell carcinomas (SCC) induction using SKH-1 hairless mice, a well-defined murine model for the study of photocarcinogenesis that develops skin tumors including benign papilloma and malignant SCC. The validity of this model is exemplified by the remarkable similarity between UVB-induced carcinogenesis in these mice and the UV carcinogenesis pathway in human skin. SKH-1 hairless mice have yield extremely valuable data on the dose, time-course and the action spectrum for skin tumorigenesis following chronic UV B irradiation. In this study, peptide A (3 mg/kg) was administrated three times per week and 10 minutes prior to each UV B exposure.

XPC deficient mice = assay: Premature skin aging in XPC deficient mice (progerin, OXPHOS, proteomics); assay type: in vivo
Method: FIGS. 11A and 11B: show the effect of NOX1 inhibitor peptide A (InhNOX) on progerin expression in skin biopsies of young XPC^+/+ and XPC^−/− mice. One month old mice were treated topically with 3 mg/kg (6 mice per group) Nox1 inhibitor peptide A (InhNOX) or control peptide (vehicle) three times per week for three months. (A) Total protein extracts of skin biopsies were assessed for progerin by Western blot analysis. β-actin was used as a loading control. (B) The protein bands corresponding to progerin was quantified and normalized with β-actin. The average density±SD from six mice in each group is presented as the relative value to the density in young wild type mice.
FIGS. 12A and 12B: show the effects of Nox1 inhibitor peptide A (InhNOX) on protein expression of OXPHOS complexes in skin biopsies of young XPC^+/+ and XPC^−/− mice. One month old mice were treated topically with 3 mg/kg (6 mice per group) Nox1 inhibitor peptide A (InhNOX) or control peptide (vehicle) three times per week for three months. (A) Expression of OXPHOS complexes were assessed by western blot analysis. β-actin was used as a loading control. (B) The bands corresponding to different OXPHOS complexes were quantified and normalized with β-actin. The average density±SD from six mice in each group is presented as the relative value to the density in young wild type mice.
To assess the anti-aging effects of Nox1 inhibitor peptide A (SEQ ID NO: 41) the accelerated aging in XPC deficient mice was first evaluated. To this end, the expression of progerin, a truncated version of lamin A protein involved in progeria syndrome, has been evaluated in 4 months old (young) and 1.5 year old (old) proficient and deficient XPC mice (XPC^+/+ and XPC^−/−, respectively) (FIGS. 9A and 9B).
To investigate the role of NADPH oxidase activity on premature aging in XPC deficient mice, one month old XPC^+/+ and XPC^−/− mice have been treated with NOX1 inhibitor peptide or vehicle three times per week for three months. The progerin expression (FIG. 11), OXPHOS protein expression (FIG. 12) and metabolism profile in murine epidermal cells have been then evaluated. […] To have a general idea on the effects of NOX1 peptide inhibitor on the XPC knockdown-induced metabolism alteration, proteomic approach has been used.

[5] = target: T1, Nox1 activity in mouse skin (Mus musculus, UniProt Q8CJ00); assay: NADPH oxidase activity in mouse skin after topical treatment; assay type: in vivo, SKH-1 mice; conditions: 3 and 12 mg/kg
T1 construct: from tissue; host or cells: skin biopsies of SKH-1 mice
T1 sequence (Q8CJ00 1-444): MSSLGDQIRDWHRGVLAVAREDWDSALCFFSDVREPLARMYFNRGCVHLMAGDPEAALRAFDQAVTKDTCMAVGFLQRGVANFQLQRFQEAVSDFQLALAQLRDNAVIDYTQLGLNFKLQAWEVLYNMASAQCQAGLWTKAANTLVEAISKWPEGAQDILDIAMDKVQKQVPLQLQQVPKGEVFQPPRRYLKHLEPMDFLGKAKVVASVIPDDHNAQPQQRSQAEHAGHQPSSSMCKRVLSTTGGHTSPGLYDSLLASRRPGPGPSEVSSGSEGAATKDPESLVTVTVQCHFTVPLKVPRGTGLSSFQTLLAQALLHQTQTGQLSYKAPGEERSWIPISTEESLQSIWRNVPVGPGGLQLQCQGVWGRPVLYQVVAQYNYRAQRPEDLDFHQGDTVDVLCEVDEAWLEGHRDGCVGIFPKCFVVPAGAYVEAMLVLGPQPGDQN
Method: (§3) FIGS. 5A and 5B: show effect of peptide A on Nox1 activity in mouse skin. SKH-1 mice were treated topically with different doses: 0.4, 3 and 12 mg/kg (3 mice per dose) of Nox1 inhibitor peptide A. Skin biopsies were harvested 2 h, 24 h, 48 h and 72 h post-treatment and the NADPH oxidase activity was measured (RLU/μg of proteins). Results was normalized to the non-treated (NT) mice and expressed as % of inhibition of Nox activity. (B) Mice were treated topically with 3 and 12 mg/kg of peptide A (2 mice per dose). 10 min after treatment, mice were exposed to UVB (150 mJ/cm^2). Skin biopsies were harvested 2 h, 24 h. At 46 h after first treatment, mice were treated again with the same concentration of peptide A and exposed to UVB 10 min later. Skin biopsies were then harvested at 2 h, 24 h (i.e. 48 and 72 h after first treatment, respectively). The NADPH oxidase activity was measured (RLU/μg of proteins) and was normalized to the non-treated (NT) and non-irradiated mice.
(§4) To examine the effect of peptide A on Nox1 activity in mouse skin, SKH-1 mice were treated topically with different doses of peptide A (FIG. 5A). […] The effect of peptide A on UVB irradiated mice was then tested (FIG. 5B).

Nox1 = target: T2, Nox1 (Homo sapiens, UniProt Q86UR1); assay: ROS level in shCtrl, shNox1 or shNox2-transduced keratinocytes; assay type: cell-based; conditions: shNox1-transduced keratinocytes, 24 h post-treatment, compared to control peptide C
T2 construct: endogenous in cells; host or cells: keratinocytes transduced with lentiviral shCtrl, shNox1 or shNox2
T2 sequence (Q86UR1 1-476): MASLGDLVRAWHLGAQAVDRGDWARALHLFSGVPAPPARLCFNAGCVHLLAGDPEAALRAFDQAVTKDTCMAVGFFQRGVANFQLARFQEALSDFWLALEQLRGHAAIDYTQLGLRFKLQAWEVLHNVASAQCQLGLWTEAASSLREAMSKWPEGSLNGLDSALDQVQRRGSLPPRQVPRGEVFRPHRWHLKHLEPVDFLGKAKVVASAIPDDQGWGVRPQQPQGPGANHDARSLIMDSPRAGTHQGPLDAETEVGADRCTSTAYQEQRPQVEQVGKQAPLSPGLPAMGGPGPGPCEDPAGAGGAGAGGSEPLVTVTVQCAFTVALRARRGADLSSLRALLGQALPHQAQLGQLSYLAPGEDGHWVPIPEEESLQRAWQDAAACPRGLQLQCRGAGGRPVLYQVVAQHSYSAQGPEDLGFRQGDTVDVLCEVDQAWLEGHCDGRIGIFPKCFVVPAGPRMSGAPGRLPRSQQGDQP
Method: (§5) FIGS. 3A, 3B and 3C: show inhibition of endogenous Nox1 and Nox2 protein expression using lentivirus-mediated expression of shRNA against Nox1 and Nox2. Keratinocytes were transduced with different shRNA (shNox1, shNox2 and the control shCtrl). Transduction efficacy was checked by western blotting analysis. […] Transduction efficacy was checked by western blotting analysis. Relative ROS level (3B) and Nox activity (3C) were measured 24 h post-treatment with Nox1 inhibitor peptide A compared to control peptide C. ROS level was normalized to counterpart peptide C-treated cells. NADPH oxidase activity was measured by relative luminescence unit (RLU) per μg of proteins. *P<0.05. […] In FIG. 3C NADPH oxidase activity was measured in shCtrl and shNox1-transduced cells treated with or without Nox1 inhibitor peptide A.
(§6) To examine the specificity of these peptides, the expression of endogenous Nox1 and Nox2 protein was inhibited using lentivirus-mediated expression of shRNA against Nox1 and Nox2. […] Further, NADPH oxidase activity was measured in shCtrl and shNox1-transduced cells treated with or without peptide A (FIG. 3C).

NADPH oxidase [6] = assay: NADPH oxidase activity in non-tumor bearing skin and UVB-induced tumors after 29 weeks; assay type: in vivo, SKH-1 mice; conditions: compared with vehicle treated mice, after 29 weeks of treatment
Method: Mice were sacrificed after 29 weeks of treatment. Non-tumor bearing skin and tumors were harvested from irradiated mice treated with peptide A or the vehicle. NADPH oxidase activity was measured as RLU/μg of proteins in non-tumor bearing skin and UVB-induced tumors. Relative inhibition of Nox activity in non-tumor bearing skin and tumors was evaluated following arbitrary setting the Nox activity in non-tumor bearing skin and tumors taken from vehicle treated-mice to 100%. Results were then expressed as the average percentage of vehicle-treated mice.
The activity of NADPH oxidase was reduced 70% in non-tumor bearing skin and 54% in tumors isolated from mice treated with peptide A compared with vehicle treated mice (FIG. 7).

[7] = test system: UVB-induced Nox activation; assay: UVB-induced Nox activation in skin of irradiated mice; assay type: in vivo, SKH-1 mice; conditions: topical 3 and 12 mg/kg, 10 min prior to irradiation (UVB 150 mJ/cm^2)
Method: as §3, §4

NADPH oxidase [8] = assay: NADPH oxidase activity in shCtrl and shNox1-transduced keratinocytes; assay type: cell-based, human; conditions: peptide A-treated cells versus shNox1-transduced cells and shNox1-transduced cells treated with peptide A
Method: as §5, §6

[9] = XPC^−/− mice, 3 mg/kg topical three times per week for three months
[10] = 3 mg/kg topical three times per week, 10 minutes prior to each UVB exposure, 29 weeks

Substance: tat-I-Q-S-R-C-C-T-V-T (RKKRRQRRRIQSRCCTVT; FUSION PEPTIDE) [peptide B, target SH3-NoxA1]
ROS level [1]: significant decrease
ROS level [2]: significant reduction

Substance: tat-C-L-R-I-T-R-Q-S-R [peptide C, reference compound]
tumors with a volume less than 5 mm^3 [4]: 8%

Substance: PPTVPTR (HOMO SAPIENS) [P7, shorter peptide derived from peptide A]
inhibition of NADPH oxidase activity (NADPH oxidase [3]): efficiently inhibit
XPC deficiency-induced premature aging (XPC deficient mice; XPC deficient mice): blocked
all experiments of Example 8 repeated, compared with peptide A (XPC deficient mice; XPC deficient mice): the same results have been obtained

Substance: tat-P-P-T-V-P-T-R-P-S (RKKRRQRRRPPTVPTRPS; FUSION PEPTIDE) [peptide A, target SH3-NoxA1]
ROS level [1]: significant decrease
duration of efficient inhibition of Nox activity in skin [5]: up to 3 days
ROS level [2]: significant reduction
steady-state levels of ROS in shNox1-transduced cells (Nox1): no effect
XPC deficiency-induced premature aging (XPC deficient mice; XPC deficient mice): blocked
XPC deficiency-induced metabolic alteration (proteomic approach) (XPC deficient mice; XPC deficient mice, three times per week for three months): eliminated the effects
expression of OXPHOS complexes I, II and III (XPC deficient mice; [9]): abrogated the decrease
protein expression of progerin in skin (XPC deficient mice; [9]): blocked the increase
reduction of NADPH oxidase activity in non-tumor bearing skin (NADPH oxidase [6]): 70%
reduction of NADPH oxidase activity in tumors (NADPH oxidase [6]): 54%
UVB-induced Nox activation [7]: efficiently blocked
decrease in tumor number [4, 10]: 2.3 times
decrease in tumor size [4, 10]: 2.9 times
tumors with a volume less than 5 mm^3 [4]: 57%
NADPH oxidase activity (NADPH oxidase [8]): Equally decreased

Other lines, results leading:

inhibition of NADPH oxidase activity (NADPH oxidase [3]): as efficiently as peptide A
Substance: PPTVPTRPS (HOMO SAPIENS) [peptide A without tat]

inhibition of NADPH oxidase activity (NADPH oxidase [3]): efficiently inhibit
Substance: P8: shorter peptide derived from peptide A, sequence not printed (PPTVPTRP; … PEPTIDIC FRAGMENT)
